Biological target: T1, YjhC (Escherichia coli, UniProt P39353)
T1 construct: gene nanY; full-length ORF from ASKA library in pCA24N, N-terminal His6-tag kept, expressed in E. coli BL21
Experiment: LC-MS of ligand co-purified with the enzyme
Format: binding
Conditions: co-purified after metal affinity and gel filtration

T1 sequence (P39353 whole entry): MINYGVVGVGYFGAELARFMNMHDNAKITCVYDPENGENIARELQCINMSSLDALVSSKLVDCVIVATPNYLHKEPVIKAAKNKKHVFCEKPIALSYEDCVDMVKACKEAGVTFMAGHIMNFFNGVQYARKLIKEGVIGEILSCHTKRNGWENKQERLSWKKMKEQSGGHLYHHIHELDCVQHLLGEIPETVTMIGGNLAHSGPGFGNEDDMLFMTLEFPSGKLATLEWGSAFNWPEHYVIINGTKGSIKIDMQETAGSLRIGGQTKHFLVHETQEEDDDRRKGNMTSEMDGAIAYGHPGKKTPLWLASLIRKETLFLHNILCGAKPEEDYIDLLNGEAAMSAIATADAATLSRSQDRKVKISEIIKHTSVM

NC(=O)C1=CN([C@@H]2O[C@H](COP(=O)(O)OP(=O)(O)OC[C@H]3O[C@@H](n4cnc5c(N)ncnc54)[C@H](O)[C@@H]3O)[C@@H](O)[C@H]2O)C=CC1 [NADH]
co-purified ligand detected: presence of small amounts of NAD^+ and NADH

Source: paper PMC7315737, “The putative Escherichia coli dehydrogenase YjhC metabolises two dehydrated forms of N-acetylneuraminate produced by some sialidases” (Bioscience Reports, 2020)
